Melting point data for one compound are collected here from patent US20130317064A1 (priority 2011, published 2013).

Molecules are shown by their SMILES.

`Cc1cc(C(F)(F)F)nn1CC(=O)N1CCC(c2nc(NC(=O)C3=C(O)CCCC3=O)cs2)CC1` [I.a.001, 2-hydroxy-6-oxo-cyclohex-1-enecarboxylic acid (2-{1-[2-(5-methyl-3-trifluoromethyl-pyrazol-1-yl)-acetyl]-piperidin-4-yl}-thiazol-4-yl)-amide]: the melting point was in the range of 102 to 105 °C.

What is called melting point is the temperature of the solid-liquid transition.
